The source of these data is US8404650B2, “Methods of treating cancer with doxazolidine and prodrugs thereof” (priority 2005, dated 2013).

Read-outs that look alike come from different tables or passages of the source.

Data set [1] concerns SK-HEP-1 liver cancer cells. Nature of the data set: Drug uptake by SK-HEP-1 cells, flow cytometry. As to conditions: in the presence of fetal bovine serum. Type of data set: cell-based. On the procedure:
Uptake of pentyl PABC-Doxaz and Dox by multidrug resistant MCF-7/Adr breast cancer cells and SK-HEP-1 liver cancer cells in the presence of fetal bovine serum was determined by flow cytometry using drug fluorescence as a measure of drug in cells.

The subject of data set [2] is SHP-77. Nature of the data set: Growth inhibition of SHP-77 small cell lung cancer cells. Type of data set: cell-based. The following applies: 24 h drug treatment, crystal violet. An excerpt:
SHP-77 small cell lung cancer cells were also of interest because they express modest amounts of both enzymes. Inhibition of the growth of cardiomyocytes was used as a measure of cardiotoxicity, and inhibition of the growth of Vero cells, green monkey kidney cells, was again used as another measure of toxicity to normal cells.

The test system of data set [3] is MCF-7/Adr. Nature of the data set: Growth inhibition of multidrug resistant MCF-7/Adr breast cancer cells (crystal violet). Type of data set: cell-based. The following applies: for IC50: Homo sapiens, NCI/ADR-RES. On the procedure:
In vitro Activity. […] This cell suspension was dispensed in 200 μL aliquots (1000 cells/well) into the inside wells of 96-well tissue culture plates. Outside wells contained 200 μL of media. […] The medium was replaced with 90 μL of growth medium prior to addition of the drug. Doxaz was dissolved in DMSO at concentrations ranging from 50 μM to 1 mM. […] Serial dilutions (1:3 and 1:10) were made in sterile DMSO to yield seven solutions of decreasing drug concentration at 100× the respective working concentrations. […] Additionally, two lanes were treated with 10 μL of growth medium containing 10% sterile DMSO and one lane was treated with 90 μL of 1.5 M Tris HCl. […]
Cell growth inhibition experiments initially focused on MCF-7, MCF-7/Adr, SK-HEP-1, and Hep G2 cancer cells as well as rat cardiomyocytes as a measure of cardiotoxicity and Vero cells (green monkey kidney cells) as an additional measure of normal cell toxicity.
Activity of plasmin-activated prodrugs.
A more thorough characterization of the growth inhibition of a variety of cancer cells as well as rat cardiomyocytes by Formula IV (aFK-PABC-Doxaz) was evaluated in comparison with inhibition of growth by Doxaz, Dox and aFK-PABC-Dox. Cells were treated with drug for 3 h and colony growth was measured at 3 to 5 days when cells reached about 80% confluence. […] The breast cancer cell lines represent the multi-drug resistant (MDR) phenotype with MCF-7/Adr cells and a cell line that is transfected with the gene for urokinase plasminogen activator (uPA), the primary enzyme responsible for cleavage of plasminogen to plasmin. Rat cardiomyocytes served as a model for comparison of drug cardiotoxicity.

A short description of data set [4]: Functional measure of hydrolysis: pre-hydrolysis in RPMI medium or human serum, then growth of MCF-7/Adr cells. Type of data set: cell-based. As to conditions: read out by growth of MCF-7/Adr cells; for half-life at 10 µM: RPMI 1640 medium, RPMI 1640, 37° C., estimated from FIG. 5A, read-out: Half-life in cell culture media. On the procedure:
Hydrolysis of Doxaz or DoxF in RPMI medium was performed by dissociating the cells with trypsin/EDTA, counting and then suspending the cells in growth media to a concentration of 5×10^3 cells/mL. This cell suspension was dispensed in 200 μL aliquots (1000 cells/well) into the inside wells of 96-well tissue culture plates. Plates were then incubated for 24 h at 37° C. in a humidified atmosphere of 5% CO2, and 95% air. The medium was replaced with 180 μL of growth medium prior to addition of the drug. RPMI media (no serum added) was divided into 5 mL aliquots in conical vials and heated to 37° C. in a constant temperature bath. Doxaz and DoxF were dissolved in DMSO at a concentration of 1 mM equivalents. The concentration was then corrected by measuring the solution absorbance at 480 nm (ε=11,500 M^−1 cm^−1). Drug solution (50 μl) was added to an individual conical vial and the drug was allowed to hydrolyze (at 10 μM) for 0, 10, 20, 30, 45, 60, 75 or 90 min. Experiments were performed such that all hydrolysis times would end simultaneously. After hydrolysis, 20 μL of the drug solution was added to a lane of wells on the 96-well plate to give a final concentration of 1 μM equivalents (sum of Doxorubicin, Doxaz and/or DoxF) for treatment of cells. Additionally, two lanes were treated with 20 μL of growth medium containing 1% sterile DMSO for a control. The cells were incubated at 37° C. for 3 h, at which time the drug solutions were replaced with 200 μL of fresh growth media. The cells were then incubated for 5 days, and the extent of colony formation was determined using a crystal violet staining assay measuring optical density at 588 and 770 nm.
Hydrolysis of DoxF in RPMI medium or 100% human serum was performed as described above except drug hydrolysis was performed at 1 μM equivalents and drug treatment was at 100 nM equivalents. During drug treatment, the medium was either 90% RPMI/10% FBS or 90% RPMI/10% human serum. During cell growth, the medium was 90% RPMI/10% FBS. […]

For data set [5], the target named is human plasmin (Homo sapiens, UniProt P00747). In words: Plasmin activation of prodrug and release of Doxaz (HPLC). Type of data set: biochemical. The following applies: human, human plasmin; 37° C.; read-out: Half-life in the presence of plasmin. On the procedure: Both Formulas IV and V were incubated with 15 μg/ml human plasmin and monitored by HPLC at 37° C. Just 4 min after the addition of plasmin, 20 percent of compound 10 was converted to Doxaz and roughly 50% of that Doxaz had hydrolyzed to Doxorubicin. Within 23 minutes, nearly all of the prodrug was converted to Doxaz and subsequently hydrolyzed to Doxorubicin.

The nature of data set [6]: Water solubility. Type of data set: physicochemical. As to conditions: as di-cation.
The test system of data set [7] is cancer cells. As to conditions: background statement; cited from earlier work.
Setting [8] is: 3 h, read-out: Growth inhibition IC50, MCF-7/Adr, 3 h.
Setting [9] is: read-out: IC50 value for cell growth inhibition, MCF-7/Adr.
[10] abbreviates: 3 h, read-out: IC50 MCF-7/Adr + plasmin.

human plasmin, sequence (P00747 581-810 limits assumed): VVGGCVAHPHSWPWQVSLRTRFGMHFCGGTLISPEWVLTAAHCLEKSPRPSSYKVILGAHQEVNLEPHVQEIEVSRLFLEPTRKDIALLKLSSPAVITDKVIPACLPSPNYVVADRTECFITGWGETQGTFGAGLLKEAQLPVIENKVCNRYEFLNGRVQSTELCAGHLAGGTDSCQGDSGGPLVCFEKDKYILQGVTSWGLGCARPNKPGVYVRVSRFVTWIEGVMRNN
human plasmin, sequence (P00747 97-580 partner limits assumed): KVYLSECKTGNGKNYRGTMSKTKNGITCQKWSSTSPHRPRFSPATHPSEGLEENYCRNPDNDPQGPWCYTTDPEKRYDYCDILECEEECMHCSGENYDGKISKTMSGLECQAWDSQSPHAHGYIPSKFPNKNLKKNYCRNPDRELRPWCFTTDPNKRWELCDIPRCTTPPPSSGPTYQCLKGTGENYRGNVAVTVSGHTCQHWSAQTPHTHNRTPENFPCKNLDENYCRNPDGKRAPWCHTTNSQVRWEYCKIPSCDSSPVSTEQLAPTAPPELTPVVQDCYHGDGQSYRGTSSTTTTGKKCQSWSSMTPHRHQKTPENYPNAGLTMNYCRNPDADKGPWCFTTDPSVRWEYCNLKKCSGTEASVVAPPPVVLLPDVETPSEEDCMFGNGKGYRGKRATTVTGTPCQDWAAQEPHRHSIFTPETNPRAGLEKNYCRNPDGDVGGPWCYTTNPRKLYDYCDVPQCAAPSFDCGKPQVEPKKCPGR

For the compound `CCCCCOC(=O)Nc1ccc(COC(=O)N2COC3C(C)OC(OC4CC(O)(C(=O)CO)Cc5c(O)c6c(c(O)c54)C(=O)c4c(OC)cccc4C6=O)CC32)cc1` (stereo not drawn) [Pentyl PABC-Doxaz, Pentyl 4-(N-doxazolidinylcarbonyloxymethyl)phenylcarbamate], in data set [1], the “Uptake relative to Dox, SK-HEP-1” value is “taken up much better”. Besides, in data set [2], the “Cell growth inhibition IC50, SHP-77” value was −7.3 ± 0.1 log of molar concentrations. Moreover, the “Growth inhibition IC50, MCF-7/Adr, 24 h” value in data set [3] (24 h drug treatment, crystal violet) is on record as −6.5 ± 0.06 log of the molar concentration.
As for `COc1cccc2c1C(=O)c1c(O)c3c(c(O)c1C2=O)C[C@@](O)(C(=O)CO)C[C@@H]3O[C@H]1C[C@@H]2NCO[C@@H]2[C@H](C)O1` [Doxaz, Doxazolidine], in data set [4], the half-life (usually how long it takes for the measured level to halve) at 10 µM was ~1 min. Also, the IC50 in data set [3] (setting [8]) was 3.16 nM; in data set [3] (read-out: IC50 MCF-7/Adr) it was 3 ± 0.2 nM; in data set [3] (setting [9]) it was ~2 nM.
As for `COc1cccc2c1C(=O)c1c(O)c3c(c(O)c1C2=O)C[C@@](O)(C(=O)CO)C[C@@H]3O[C@H]1C[C@H]2[C@H](OCN2C(=O)OCc2ccc(NC(=O)[C@H](CCCCN)NC(=O)[C@H](Cc3ccccc3)NC(=O)[C@@H](C)N)cc2)[C@H](C)O1` [Formula IV, D-Ala-L-Phe-L-Lys-p-aminobenzyloxycarbonyl-Doxaz], in data set [5], the half-life is ~6 min. Also, the values for the IC50 in data set [3] (setting [10]) and in data set [3] (read-out: IC50 MCF-7/Adr) were 10 nM and 100 nM, respectively. Also, the Water solubility entry in data set [6] is “excellent water solubility”.
Consider `COc1cccc2c1C(=O)c1c(O)c3c(c(O)c1C2=O)C[C@@](O)(C(=O)CO)C[C@@H]3O[C@H]1C[C@H](N)[C@H](O)[C@H](C)O1` [Doxorubicin, reference compound], for which the IC50 is 126 nM in data set [2] (Homo sapiens, SHP77); 6310 nM in data set [3] (setting [8]); 20000 nM in data set [3] (setting [10]); 2510 nM in data set [3] (24 h, read-out: Growth inhibition IC50, MCF-7/Adr, 24 h); 10000 nM in data set [3] (read-out: IC50 MCF-7/Adr).
On to `COc1cccc2c1C(=O)c1c(O)c3c(c(O)c1C2=O)C[C@@](O)(C(=O)CO)C[C@@H]3OC1CC2C(OCN2CN2COC3C(C)OC(O[C@H]4C[C@](O)(C(=O)CO)Cc5c(O)c6c(c(O)c54)C(=O)c4c(OC)cccc4C6=O)CC32)C(C)O1` (stereo partly drawn) [DoxF, Doxoform, reference compound], for which, in data set [4] (100% human serum, 100% pooled human serum, 37° C., start 100 nM equivalents, estimated from FIG. 5B), the half-life at 1 µM is ~3 min. Besides, the half-life at 10 µM in data set [4] was ~1.5 min. Also, the IC50 in data set [3] (3 h, read-out: IC50 MCF-7/Adr) was 1 nM; in data set [3] (setting [9]), ~2 nM. The “Anti-tumor activity above Doxorubicin” value in data set [7] was “approximately 100 fold”.
